We go through three compounds from ChEMBL document CHEMBL5696442, “Discovery of type II inhibitors of TGFβ-activated kinase 1 (TAK1) and mitogen-activated protein kinase kinase kinase kinase 2 (MAP4K2)” (J Med Chem, 2015).

The residual activity is what remains of the control signal, in per cent. A higher residual activity goes with much activity left. As usually defined, the inhibition is the change of the read-out against control, counted positive when it falls.

The target in test [1] is T1, Serine/threonine-protein kinase Nek1 (Homo sapiens) (UniProt Q96PY6).
T1 sequence (whole entry): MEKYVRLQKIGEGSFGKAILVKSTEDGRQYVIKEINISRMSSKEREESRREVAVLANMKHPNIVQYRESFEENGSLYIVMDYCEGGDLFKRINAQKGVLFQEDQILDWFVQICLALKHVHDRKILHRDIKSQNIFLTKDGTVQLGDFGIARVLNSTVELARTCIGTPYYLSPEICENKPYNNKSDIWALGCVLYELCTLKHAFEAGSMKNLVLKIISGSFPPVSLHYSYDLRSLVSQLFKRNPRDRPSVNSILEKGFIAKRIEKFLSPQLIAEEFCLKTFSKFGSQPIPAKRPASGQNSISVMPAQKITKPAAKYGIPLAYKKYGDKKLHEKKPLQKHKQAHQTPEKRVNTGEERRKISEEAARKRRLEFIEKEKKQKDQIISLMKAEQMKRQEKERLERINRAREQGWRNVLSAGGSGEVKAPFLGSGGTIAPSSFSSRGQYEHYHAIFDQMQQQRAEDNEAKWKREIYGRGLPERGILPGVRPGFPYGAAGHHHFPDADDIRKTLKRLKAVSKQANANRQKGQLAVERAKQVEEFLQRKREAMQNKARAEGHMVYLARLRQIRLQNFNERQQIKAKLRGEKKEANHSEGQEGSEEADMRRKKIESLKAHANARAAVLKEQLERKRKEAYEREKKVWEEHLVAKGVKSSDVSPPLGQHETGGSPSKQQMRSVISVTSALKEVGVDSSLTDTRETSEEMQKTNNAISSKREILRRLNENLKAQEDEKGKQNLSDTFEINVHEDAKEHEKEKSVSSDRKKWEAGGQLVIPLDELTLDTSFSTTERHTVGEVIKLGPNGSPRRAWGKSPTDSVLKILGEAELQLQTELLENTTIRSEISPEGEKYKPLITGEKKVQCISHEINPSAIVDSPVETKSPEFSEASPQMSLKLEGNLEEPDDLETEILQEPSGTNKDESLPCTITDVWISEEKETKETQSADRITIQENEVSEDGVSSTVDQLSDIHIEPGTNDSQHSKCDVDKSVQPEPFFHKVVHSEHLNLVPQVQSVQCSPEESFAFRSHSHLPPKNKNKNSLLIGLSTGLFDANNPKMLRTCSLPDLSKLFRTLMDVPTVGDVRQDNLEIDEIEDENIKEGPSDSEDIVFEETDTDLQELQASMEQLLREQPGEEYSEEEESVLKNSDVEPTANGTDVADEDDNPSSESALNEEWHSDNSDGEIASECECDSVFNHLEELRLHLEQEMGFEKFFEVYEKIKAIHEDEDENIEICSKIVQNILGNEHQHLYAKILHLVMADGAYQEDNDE
The test is described as follows: Inhibition of NEK1 (unknown origin) at 1 uM by Ambit Kinomescan binding assay relative to control; values are per cent of control.

Test [2] has as its target Receptor-interacting serine/threonine-protein kinase 2 (Homo sapiens) (UniProt O43353). The test can be described thus: Inhibition of RIPK2 (unknown origin) at 1 uM by Ambit Kinomescan binding assay relative to control.
Test [3] addresses Cyclin-dependent kinase 17 (Homo sapiens) (UniProt Q00537). The test can be described thus: Inhibition of PCTAIRE2 Lys1 labeling site harbouring SKLTENLVALKEIRLEHEEGAPCTAIR in human A-375 cells at 0.05 uM by KiNativ Profiling analysis relative to control. Type of test: cell-based.
Test [4] relates to Tyrosine-protein kinase ABL1 (Homo sapiens), P00519 [M351T]. The test is described as follows: Inhibition of ABL1 M351T mutant (unknown origin) at 10 uM by Ambit Kinomescan binding assay relative to control.
Test [5] concerns the target Mitogen-activated protein kinase 14 (Homo sapiens, UniProt Q16539). The test can be described thus: Inhibition of p38alpha K2 labeling site in human Huh-7 cells at 1 uM by KiNativ Profiling analysis relative to control. Type of test: cell-based.
The target in test [6] is Receptor-interacting serine/threonine-protein kinase 1 (Homo sapiens) (UniProt Q13546). The test is described as follows: Inhibition of RIPK1 (unknown origin) at 10 uM by Ambit Kinomescan binding assay relative to control; values are per cent of control.
Sequence of Receptor-interacting serine/threonine-protein kinase 1 (Homo sapiens) (Q13546 whole entry): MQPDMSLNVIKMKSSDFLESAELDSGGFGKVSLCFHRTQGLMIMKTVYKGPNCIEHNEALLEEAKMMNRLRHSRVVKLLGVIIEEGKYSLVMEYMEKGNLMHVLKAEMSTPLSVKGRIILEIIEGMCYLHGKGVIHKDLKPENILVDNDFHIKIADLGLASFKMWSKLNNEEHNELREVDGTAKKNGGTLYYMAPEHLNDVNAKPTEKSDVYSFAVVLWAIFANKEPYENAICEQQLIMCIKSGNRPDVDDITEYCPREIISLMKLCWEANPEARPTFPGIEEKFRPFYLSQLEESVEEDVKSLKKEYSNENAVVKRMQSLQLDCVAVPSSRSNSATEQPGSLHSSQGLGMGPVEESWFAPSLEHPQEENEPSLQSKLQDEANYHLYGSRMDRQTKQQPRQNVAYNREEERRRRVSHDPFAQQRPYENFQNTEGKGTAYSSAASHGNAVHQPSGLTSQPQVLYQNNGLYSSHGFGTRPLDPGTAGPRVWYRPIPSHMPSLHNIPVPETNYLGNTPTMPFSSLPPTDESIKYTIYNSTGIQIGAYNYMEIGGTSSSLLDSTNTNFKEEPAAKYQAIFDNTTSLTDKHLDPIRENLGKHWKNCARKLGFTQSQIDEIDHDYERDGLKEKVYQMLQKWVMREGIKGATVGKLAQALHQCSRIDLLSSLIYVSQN
In test [7] the target is Mitogen-activated protein kinase 10 (Homo sapiens, UniProt P53779). The test is described as follows: Inhibition of JNK3 (unknown origin) at 10 uM by Ambit Kinomescan binding assay relative to control.
Sequence of Mitogen-activated protein kinase 10 (P53779 whole entry): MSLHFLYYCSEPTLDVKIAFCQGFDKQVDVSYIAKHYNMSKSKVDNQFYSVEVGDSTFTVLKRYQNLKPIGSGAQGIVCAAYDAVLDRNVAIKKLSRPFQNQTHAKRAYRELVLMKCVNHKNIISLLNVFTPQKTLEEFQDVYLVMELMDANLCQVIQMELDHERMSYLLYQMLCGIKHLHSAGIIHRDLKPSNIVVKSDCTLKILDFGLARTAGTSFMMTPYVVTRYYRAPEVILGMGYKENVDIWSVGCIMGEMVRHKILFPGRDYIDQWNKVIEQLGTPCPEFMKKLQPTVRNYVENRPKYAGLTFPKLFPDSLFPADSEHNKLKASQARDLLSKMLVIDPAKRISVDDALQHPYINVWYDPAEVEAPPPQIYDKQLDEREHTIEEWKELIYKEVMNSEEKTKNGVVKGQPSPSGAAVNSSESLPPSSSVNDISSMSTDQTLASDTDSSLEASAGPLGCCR
Test [8] deals with Misshapen-like kinase 1 (Homo sapiens) (UniProt Q8N4C8). The test is described as follows: Inhibition of ZC3/MINK Lys2 labeling site in human Huh-7 cells at 1 uM by KiNativ Profiling analysis relative to control. Type of test: cell-based.
Sequence of Misshapen-like kinase 1 (Homo sapiens) (Q8N4C8 whole entry, looked up): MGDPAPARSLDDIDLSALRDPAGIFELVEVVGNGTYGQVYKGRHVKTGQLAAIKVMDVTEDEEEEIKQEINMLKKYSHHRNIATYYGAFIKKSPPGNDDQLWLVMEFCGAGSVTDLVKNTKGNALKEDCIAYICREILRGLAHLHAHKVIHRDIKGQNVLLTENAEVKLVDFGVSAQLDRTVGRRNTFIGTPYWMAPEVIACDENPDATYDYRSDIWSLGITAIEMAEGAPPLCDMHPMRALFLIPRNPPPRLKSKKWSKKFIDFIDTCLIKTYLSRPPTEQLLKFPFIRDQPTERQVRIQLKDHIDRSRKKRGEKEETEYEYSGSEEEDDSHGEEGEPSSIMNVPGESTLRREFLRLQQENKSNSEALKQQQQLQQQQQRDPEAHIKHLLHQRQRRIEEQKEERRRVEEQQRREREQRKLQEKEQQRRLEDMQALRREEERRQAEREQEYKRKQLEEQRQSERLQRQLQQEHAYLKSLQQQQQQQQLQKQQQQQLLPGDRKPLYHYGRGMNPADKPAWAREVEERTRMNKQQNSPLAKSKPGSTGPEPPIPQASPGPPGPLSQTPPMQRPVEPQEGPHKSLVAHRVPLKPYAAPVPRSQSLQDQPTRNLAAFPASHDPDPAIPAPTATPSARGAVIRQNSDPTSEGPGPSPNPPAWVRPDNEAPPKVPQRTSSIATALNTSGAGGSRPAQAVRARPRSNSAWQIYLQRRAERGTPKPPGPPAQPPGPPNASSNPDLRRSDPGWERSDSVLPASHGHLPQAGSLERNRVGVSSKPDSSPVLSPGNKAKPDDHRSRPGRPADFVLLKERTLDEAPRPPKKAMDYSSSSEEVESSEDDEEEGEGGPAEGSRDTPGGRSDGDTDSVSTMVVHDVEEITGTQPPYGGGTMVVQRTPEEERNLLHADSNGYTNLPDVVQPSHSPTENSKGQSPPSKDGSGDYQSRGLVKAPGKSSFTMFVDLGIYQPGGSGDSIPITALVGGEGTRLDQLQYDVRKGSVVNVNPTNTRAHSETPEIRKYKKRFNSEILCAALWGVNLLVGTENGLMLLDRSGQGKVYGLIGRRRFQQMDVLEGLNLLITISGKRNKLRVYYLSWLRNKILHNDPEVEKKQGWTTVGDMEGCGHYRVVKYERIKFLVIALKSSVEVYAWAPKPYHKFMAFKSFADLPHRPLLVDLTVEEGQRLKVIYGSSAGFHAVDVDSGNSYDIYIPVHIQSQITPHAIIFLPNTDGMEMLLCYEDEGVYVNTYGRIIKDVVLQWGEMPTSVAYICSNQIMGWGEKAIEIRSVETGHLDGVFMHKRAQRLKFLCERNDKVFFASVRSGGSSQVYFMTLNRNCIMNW
Test [9] addresses Cyclin-dependent kinase 17 (Homo sapiens) (UniProt Q00537). The test can be described thus: Inhibition of PCTAIRE2 Lys2 labeling site harbouring DLKPQNLLINEKin human Huh-7 cells at 1 uM by KiNativ Profiling analysis relative to control. Type of test: cell-based.
The target of test [10] is T2, Serine/threonine-protein kinase TAO1 (Homo sapiens) (UniProt Q7L7X3).
T2 sequence (whole entry): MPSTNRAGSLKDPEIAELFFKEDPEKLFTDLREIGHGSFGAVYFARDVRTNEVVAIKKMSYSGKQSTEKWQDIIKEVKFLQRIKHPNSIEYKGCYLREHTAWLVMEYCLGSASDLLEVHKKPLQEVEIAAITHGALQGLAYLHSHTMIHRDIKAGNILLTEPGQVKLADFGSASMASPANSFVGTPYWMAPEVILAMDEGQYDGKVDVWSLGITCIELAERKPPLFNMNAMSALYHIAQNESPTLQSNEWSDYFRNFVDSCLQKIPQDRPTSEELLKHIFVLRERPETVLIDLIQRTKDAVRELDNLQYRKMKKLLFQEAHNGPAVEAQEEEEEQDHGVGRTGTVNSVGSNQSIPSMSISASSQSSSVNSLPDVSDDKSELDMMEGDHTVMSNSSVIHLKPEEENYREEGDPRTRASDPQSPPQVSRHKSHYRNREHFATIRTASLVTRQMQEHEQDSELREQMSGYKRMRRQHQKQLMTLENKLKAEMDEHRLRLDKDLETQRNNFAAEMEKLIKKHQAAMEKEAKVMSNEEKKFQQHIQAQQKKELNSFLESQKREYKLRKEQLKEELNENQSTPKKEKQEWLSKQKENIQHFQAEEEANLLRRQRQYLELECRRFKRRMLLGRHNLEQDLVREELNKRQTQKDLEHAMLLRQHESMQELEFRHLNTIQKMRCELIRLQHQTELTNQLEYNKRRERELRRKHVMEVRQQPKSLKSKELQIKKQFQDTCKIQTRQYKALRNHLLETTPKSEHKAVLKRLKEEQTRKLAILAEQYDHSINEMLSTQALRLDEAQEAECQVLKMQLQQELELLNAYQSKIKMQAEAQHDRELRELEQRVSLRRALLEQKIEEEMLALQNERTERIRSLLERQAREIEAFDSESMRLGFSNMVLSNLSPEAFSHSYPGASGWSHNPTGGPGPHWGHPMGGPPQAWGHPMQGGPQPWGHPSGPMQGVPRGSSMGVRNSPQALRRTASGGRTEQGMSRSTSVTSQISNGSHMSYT
The test is described as follows: Inhibition of TAO1 Lys2 labeling site in human Huh-7 cell lysate at 1 uM by KiNativ Profiling analysis relative to control. Type of test: subcellular.

Sequence of Cyclin-dependent kinase 17 (Homo sapiens) (Q00537 whole entry, looked up): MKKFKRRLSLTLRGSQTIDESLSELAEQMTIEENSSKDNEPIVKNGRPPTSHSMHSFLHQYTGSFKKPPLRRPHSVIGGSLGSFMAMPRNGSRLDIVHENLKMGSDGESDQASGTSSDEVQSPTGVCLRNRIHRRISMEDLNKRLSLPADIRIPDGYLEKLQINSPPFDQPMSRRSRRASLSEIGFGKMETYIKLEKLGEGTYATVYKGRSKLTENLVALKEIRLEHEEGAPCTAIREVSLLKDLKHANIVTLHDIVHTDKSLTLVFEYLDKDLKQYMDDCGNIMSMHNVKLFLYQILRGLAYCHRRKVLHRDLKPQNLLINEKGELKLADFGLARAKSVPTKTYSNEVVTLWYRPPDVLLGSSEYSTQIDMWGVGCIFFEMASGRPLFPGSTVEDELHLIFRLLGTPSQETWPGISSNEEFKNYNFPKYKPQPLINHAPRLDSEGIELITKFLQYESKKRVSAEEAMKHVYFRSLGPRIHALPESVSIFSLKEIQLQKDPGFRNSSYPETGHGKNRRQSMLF
Sequence of Receptor-interacting serine/threonine-protein kinase 2 (Homo sapiens) (O43353 whole entry): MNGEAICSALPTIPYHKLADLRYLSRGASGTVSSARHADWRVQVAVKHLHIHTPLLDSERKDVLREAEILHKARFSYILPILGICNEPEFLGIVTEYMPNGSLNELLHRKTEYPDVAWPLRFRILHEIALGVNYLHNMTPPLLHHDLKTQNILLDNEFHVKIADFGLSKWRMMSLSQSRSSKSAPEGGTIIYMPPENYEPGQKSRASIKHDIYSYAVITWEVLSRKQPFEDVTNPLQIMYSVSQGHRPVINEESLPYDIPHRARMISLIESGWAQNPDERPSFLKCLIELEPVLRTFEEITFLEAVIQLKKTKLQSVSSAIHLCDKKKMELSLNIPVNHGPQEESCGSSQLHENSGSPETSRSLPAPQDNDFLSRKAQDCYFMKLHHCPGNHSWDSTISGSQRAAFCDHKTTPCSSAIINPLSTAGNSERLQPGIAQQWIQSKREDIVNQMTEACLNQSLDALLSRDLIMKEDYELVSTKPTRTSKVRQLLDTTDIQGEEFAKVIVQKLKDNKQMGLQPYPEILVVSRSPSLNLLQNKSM
Sequence of Mitogen-activated protein kinase 14 (Q16539 whole entry): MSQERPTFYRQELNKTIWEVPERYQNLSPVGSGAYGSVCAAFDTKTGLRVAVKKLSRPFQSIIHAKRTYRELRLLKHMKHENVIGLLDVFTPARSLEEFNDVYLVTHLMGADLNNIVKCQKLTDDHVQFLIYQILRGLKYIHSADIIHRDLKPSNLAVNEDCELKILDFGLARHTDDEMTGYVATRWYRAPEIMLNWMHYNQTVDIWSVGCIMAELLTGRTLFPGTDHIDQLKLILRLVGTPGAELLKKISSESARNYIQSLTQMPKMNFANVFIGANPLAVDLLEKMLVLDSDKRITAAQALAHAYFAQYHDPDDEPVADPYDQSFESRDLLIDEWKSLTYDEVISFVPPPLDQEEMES

With `CCN1CCN(Cc2ccc(NC(=O)c3ccc(C)c(/C=C/c4cnc5[nH]ccc5c4OC)c3)cc2C(F)(F)F)CC1`, in [1], the residual activity was 83%. Also, the inhibition in test [2] is 4.5%; in [3], 2.7%.

For `CCN1CCN(Cc2ccc(NC(=O)c3ccc(C)c(Oc4ccnc5[nH]ccc45)c3)cc2C(F)(F)F)CC1`, the results for the inhibition in [4], in test [5] and in test [7] were 0.35%, 7.1% and 12%, respectively. Besides, in test [6], the residual activity stood at 0%.

As for `CNc1cc(Oc2cc(C(=O)Nc3cc(N4CCN(C)CC4)cc(C(F)(F)F)c3)ccc2C)ncn1`, the values for the inhibition in test [8], in [9] and in [10] were 9.7%, -2.1% and -1.2%, respectively.
